{"source": "patent US20190210996A1", "about": "“NOVEL COMPOUNDS” (GLAXOSMITHKLINE INTELLECTUAL PROPERTY DEVELOPMENT LIMITED, priority 2016, published 2019)", "target": "T1, GAK (Homo sapiens, UniProt O14976)", "T1 construct": "endogenous in cells; host or cells: THP-1", "T1 sequence (O14976 1-1311)": "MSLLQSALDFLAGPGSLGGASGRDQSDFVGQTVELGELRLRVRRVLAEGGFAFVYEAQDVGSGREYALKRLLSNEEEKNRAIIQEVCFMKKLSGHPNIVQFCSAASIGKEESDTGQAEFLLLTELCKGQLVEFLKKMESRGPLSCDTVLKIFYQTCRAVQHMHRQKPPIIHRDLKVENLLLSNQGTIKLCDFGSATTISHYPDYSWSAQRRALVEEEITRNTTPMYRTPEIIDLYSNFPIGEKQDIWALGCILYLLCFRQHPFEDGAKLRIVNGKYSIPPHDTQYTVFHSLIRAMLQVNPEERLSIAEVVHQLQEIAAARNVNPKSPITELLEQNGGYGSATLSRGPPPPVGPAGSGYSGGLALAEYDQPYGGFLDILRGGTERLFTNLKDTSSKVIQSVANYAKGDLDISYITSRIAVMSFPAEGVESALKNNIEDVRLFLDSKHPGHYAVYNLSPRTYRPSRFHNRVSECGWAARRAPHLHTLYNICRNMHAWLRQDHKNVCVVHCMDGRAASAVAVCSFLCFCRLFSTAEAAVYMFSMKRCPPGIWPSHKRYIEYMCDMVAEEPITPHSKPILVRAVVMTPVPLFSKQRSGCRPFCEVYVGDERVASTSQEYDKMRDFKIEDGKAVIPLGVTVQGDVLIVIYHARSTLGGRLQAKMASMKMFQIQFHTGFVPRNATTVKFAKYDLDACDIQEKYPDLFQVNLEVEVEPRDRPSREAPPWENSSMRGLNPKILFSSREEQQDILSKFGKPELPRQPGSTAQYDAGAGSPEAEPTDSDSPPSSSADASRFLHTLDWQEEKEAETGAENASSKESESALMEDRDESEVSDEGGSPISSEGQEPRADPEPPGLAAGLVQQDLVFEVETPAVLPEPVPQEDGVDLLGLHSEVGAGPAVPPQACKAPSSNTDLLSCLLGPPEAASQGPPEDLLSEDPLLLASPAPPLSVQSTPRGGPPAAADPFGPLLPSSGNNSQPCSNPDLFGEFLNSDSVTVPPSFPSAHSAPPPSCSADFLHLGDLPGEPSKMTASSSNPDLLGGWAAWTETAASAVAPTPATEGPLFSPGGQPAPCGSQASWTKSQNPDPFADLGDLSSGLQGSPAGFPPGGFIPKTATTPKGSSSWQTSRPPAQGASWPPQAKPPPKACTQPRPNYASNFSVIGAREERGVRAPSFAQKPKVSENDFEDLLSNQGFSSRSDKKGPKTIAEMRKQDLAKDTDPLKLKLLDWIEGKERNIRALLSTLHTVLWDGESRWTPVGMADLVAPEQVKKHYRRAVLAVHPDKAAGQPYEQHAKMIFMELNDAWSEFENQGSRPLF", "experiment": "Expression proteomics in THP-1 cells: GAK protein level", "format": "cell-based", "procedure": "THP-1 cells were seeded at a concentration of 3×10^6 cells in T175 flasks with 60 mL growth medium (RPMI1640+10% FBS). […] of a 10× compound solution prepared in growth medium (DMSO), CEREBLON_PROTAC) was added and the cells were treated for the indicated time points (6 or 24 h) at 37° C., 5% CO2. For harvesting the cells were collected into falcon tubes on ice, centrifuged and washed twice in cold PBS (Life technologies). After the last washing step the supernatant was removed and the pellets were snap-frozen in liquid N2 and stored at −80° C. and lysed in 2% SDS for 3 min at 95° C. in a thermomixer (Thermo Fisher Scientific), followed by digestion of DNA with Benzonase at 37° C. for 1.5 h. Lysate was cleared by centrifugation an protein concentration in supernatant was determined by BCA assay.\nLeukemia 25, 89-100 (2011).\nSamples were dried in vacuo and resuspended in 0.05% trifluoroacetic acid in water. Of the sample, 50% was injected into an Ultimate3000 nanoRLSC (Dionex, Sunnyvale, Calif.) coupled to a Q Exactive HF (Thermo Fisher Scientific). Peptides were trapped on a 5 mm×300 μm C18 column (Pepmap100, 5 μm, 300 Å, Thermo Fisher Scientific) in water with 0.05% TFA at 60° C. Separation was performed on custom 50 cm×[…] (ID) reversed-phase columns (Reprosil) at 55° C. Gradient elution was performed from 2% acetonitrile to 40% acetonitrile in 0.1% formic acid and 3.5% DMSO over 2 hours. Samples were online injected into Q-Exactive HF mass spectrometers operating with a data-dependent top 10 method. MS spectra were acquired by using 60.000 resolution and an ion target of 3×10^6. Higher energy collisional dissociation (HCD) scans were performed with 35% NCE at 30.000 resolution (at m/z 200), and the ion target settings was set to 2×10^5 so as to avoid coalescence (Werner, T. et al. Ion Coalescence of Neutron Encoded TMT 10-Plex Reporter Ions. Anal. Chem. 86, 3594-3601 (2014).\nThe first search was performed with 30 parts per million mass tolerance for peptide precursors and 30 mD (HCD) mass tolerance for fragment ions followed by a final search using recalibrated data with a 10 parts per million mass tolerance for peptide precursors and 20 mD (HCD) mass tolerance for fragment ions. Carbamidomethylation of cysteine residues and TMT modification of lysine residues were set as fixed modifications and methionine oxidation, and N-terminal acetylation of proteins and TMT modification of peptide N-termini were set as variable modifications. […]\nNat Biotech 29, 255-265 (2011). this measure is referred to as ion area Savitski, M. M. et al. Delayed Fragmentation and Optimized Isolation Width Settings for Improvement of Protein Identification and Accuracy of Isobaric Mass Tag Quantification on Orbitrap-Type Mass Spectrometers. […]", "data": [{"smiles": "CNC(=O)c1ccccc1Nc1nc(Nc2ccc(N3CCN(CCOCCOCCOCCOCC(=O)Nc4cccc5c4CN(C4CCC(=O)NC4=O)C5=O)CC3)cc2)ncc1Cl.O=CO", "note": "(stereo not shown) [CEREBLON_PROTAC, 14-(4-(4-((5-Chloro-4-((2-(methylcarbamoyl)phenyl)amino)pyrimidin-2-yl)amino)phenyl)piperazin-1-yl)-N-(2-(2,6-dioxopiperidin-3-yl)-1-oxoisoindolin-4-yl)-3,6,9,12-tetraoxatetradecan-1-amide formate]", "values": [{"measurement": "log2 rel. fc. to vehicle control", "setting": "24 h 0.1 μM, n = 1", "value": "−1.13"}, {"measurement": "log2 rel. fc. to vehicle control", "setting": "24 h 0.1 μM, n = 2", "value": "−1.35"}, {"measurement": "log2 rel. fc. to vehicle control", "setting": "24 h 1 μM, n = 1", "value": "−0.93"}, {"measurement": "log2 rel. fc. to vehicle control", "setting": "24 h 1 μM, n = 2", "value": "−1.13"}]}]}
